Reference: patent publication US20230330089A1, “COVID PREVENTION AND TREATMENT USING AN INTEGRIN INHIBITOR” (priority 2022, published 2023)

Tested on: SARS-CoV-2 pseudovirus variants
Type: cell-based

Row | Compound | inhibition of Beta and Delta variant pseudovirus infection | inhibition of D614G pseudovirus infection | inhibition of D614G pseudovirus infection, single agent vs positive control | inhibition of D614G, Delta and Omicron pseudovirus infection | inhibition of Omicron and Delta pseudovirus infection compared with other variants | inhibition of infection by D614, D614G, N501Y, E484K, N+E, NEK, R685A pseudovirus variants
1 | COc1ccc(S(=O)(=O)N[C@@H](CNc2nc(C)nc(N3CCC(c4ccc5c(n4)NCCC5)CC3)c2C)C(=O)O)cc1 [GLPG-0187] | most significant decrease in pseudovirus infection by the Delta variant | inhibited pseudovirus infection in a dose-dependent manner | inhibited pseudovirus infection | effectively blocked | more significantly than other variants | inhibition of viral infection of each variant
2 | CNS(=O)(=O)Nc1nccc(Cc2c(C)c3ccc(Oc4ncccn4)cc3oc2=O)c1F [VS-6766] | – | – | inhibited pseudovirus infection | – | – | –
